Laboratory results taken from patent US20240158394A1, “NEK7 INHIBITORS” (Halia Therapeutics, Inc., priority 2022, published 2024).

Columns and labels:
[1] = target: full-length recombinant human NEK7 (Homo sapiens (Human), UniProt Q8TDX7); assay: NEK7 Enzymatic Assay; assay type: biochemical; details: casein substrate, [33P]-ATP, 2 hours at room temperature
Method in brief: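 GST-tagged full-length human NEK7 (Sf9-expressed) with 1 mg/mL casein in HEPES pH 7.5/MgCl2 buffer, 1% DMSO; compounds 10 μM–0.5 nM preincubated 20 min at RT. Reaction started with [^33P]-ATP, 2 h at RT, P81 filter radioactivity read; IC50 from % activity remaining versus vehicle.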

IL-1β release = assay: IL-1β Release Assay; assay type: cell-based; details: Homo sapiens; PMA-treated THP-1 cells, 250 ng/mL LPS then 20 μM nigericin; cleaved IL-1β in media
Protocol: Approximately 1.5 million THP-1 cells were plated in each well of a 6-well TC plate and incubated with 40 nM PMA in RPMI (10% FBS, 1% Penstrep) for 24 hours. The media was then removed, and cells were rested in RPMI (10% FBS, 1% Penstrep) for 24 hours after which time the media was removed and cells were pre-treated for 2 hours with various concentrations of compounds of interest (typically serial 3-fold dilution in RPMI+5% FBS, concentrations ranging from 1 μM to 0.5 nM) in RPMI (5% FBS). The media was again removed, and cells were incubated with 250 ng/mL LPS and compounds of interest (concentrations as above) in RMPI (5% FBS) for 2 hours. The media was removed for a last time and cells were incubated with 20 μM nigericin and compounds of interest (concentrations as above) in Opti-MEM for 30 minutes. Cell media was then collected and the amount of cleaved IL-1β was determined using a JESS instrument (Protein Simple) and standard protocols. Cleaved Il-1β antibody was obtained from Cell Signaling (catalogue #83186S) and was used at 1:20 dilution in antibody diluent 2. Protein Simple 1× anti-Rabbit HRP secondary antibody was used along with Protein Simple luminol and peroxide for chemiluminescent detection. Primary antibody incubation time was increased from 30 minutes to 60 minutes.

full-length recombinant human NEK7, sequence (Q8TDX7 whole entry): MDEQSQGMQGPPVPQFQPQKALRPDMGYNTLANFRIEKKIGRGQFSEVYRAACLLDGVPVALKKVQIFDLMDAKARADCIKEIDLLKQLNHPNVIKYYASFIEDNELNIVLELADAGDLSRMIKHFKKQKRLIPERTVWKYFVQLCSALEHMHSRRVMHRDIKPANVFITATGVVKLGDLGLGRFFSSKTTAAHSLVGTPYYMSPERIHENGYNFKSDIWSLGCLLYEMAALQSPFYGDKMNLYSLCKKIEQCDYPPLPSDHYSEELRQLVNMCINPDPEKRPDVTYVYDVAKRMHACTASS

IC50 [1] [nM] | IC50 (IL-1β release) [nM] | Structure (SMILES)
200 to 500 | 250 to 1000 | Nc1ncnc2c1c(-c1ccc(NC(=O)Nc3cc(C4(C(F)(F)F)CC4)on3)c3c1CCO3)cn2C1CC1 [Example I-52, 1-(4-(4-amino-7-cyclopropyl-7H-pyrrolo[2,3-d]pyrimidin-5-yl)-2,3-dihydrobenzofuran-7-yl)-3-(5-(1-(trifluorometh-yl)cyclopropyl)isoxazol-3-yl)urea]
500 to 2000 | > 1000 | Nc1ncnc2c1c(-c1ccc(NC(=O)Nc3cc(C4(C(F)(F)F)CC4)on3)c3occc13)cn2C1CC1 [Example I-65, 1-(4-(4-amino-7-cyclopropyl-7H-pyrrolo[2,3-d]pyrimidin-5-yl)benzofuran-7-yl)-3-(5-(1-(trifluoromethyl)cyclopropyl)-isoxazol-3-yl)urea]
< 200 | < 100 | CN1CCN(Cc2ccc(NC(=O)Nc3ccc(-c4cn(C5CC5)c5ncnc(N)c45)c4ccncc34)cc2C(F)(F)F)CC1 [Example I-9, 1-(5-(4-amino-7-cyclopropyl-7H-pyrrolo[2,3-d]pyrimidin-5-yl)isoquinolin-8-yl)-3-(4-((4-methylpiperazin-1-yl)-methyl)-3-(trifluoromethyl)-phenyl)urea]
< 200 | < 100 | CC(C)(C)c1cc(NC(=O)Nc2ccc(-c3cn(C4CC4)c4ncnc(N)c34)c3nonc23)on1 [Example I-74, 1-(7-(4-amino-7-cyclopropyl-7H-pyrrolo[2,3-d]pyrimidin-5-yl)benzo[c][1,2,5]oxadiazol-4-yl)-3-(3-(tert-butyl)isoxazol-5-yl)urea]
200 to 500 | < 100 | CN1CCN(Cc2ccc(NC(=O)Nc3ccc(-c4cn(C5CC5)c5ncnc(N)c45)c4ccoc34)cc2C(F)(F)F)CC1 [Example I-66, 1-(4-(4-amino-7-cyclopropyl-7H-pyrrolo[2,3-d]pyrimidin-5-yl)benzofuran-7-yl)-3-(4-((4-methylpiperazin-1-yl)-methyl)-3-(trifluoromethyl)-phenyl)urea]
> 2000 | > 1000 | CN1CCN(Cc2ccc(NC(=O)Nc3ncc(-c4cn(C5CC5)c5ncnc(N)c45)n4ccnc34)cc2C(F)(F)F)CC1 [Example I-51, 1-(5-(4-amino-7-cyclopropyl-7H-pyrrolo[2,3-d]pyrimidin-5-yl)imidazo[1,2-a]pyrazin-8-yl)-3-(4-((4-methylpiperazin-1-yl)methyl)-3-(trifluorometh-yl)phenyl)urea]
< 200 | < 100 | CN1CCN(Cc2ccc(NC(=O)Nc3ccc(-c4nn(C5CC5)c5ncnc(N)c45)n4ccnc34)cc2C(F)(F)F)CC1 [Example I-98, 1-(5-(4-amino-1-cyclopropyl-1H-pyrazolo[3,4-d]pyrimidin-3-yl)imidazo[1,2-a]pyridin-8-yl)-3-(4-((4-methylpiperazin-1-yl)methyl)-3-(trifluorometh-yl)phenyl)urea]
< 200 | 100 to 250 | Nc1ncnc2c1c(-c1ccc(NC(=O)Nc3cc(C4(C(F)(F)F)CC4)on3)c3cnccc13)cn2C1CC1 [Example I-8, 1-(5-(4-amino-7-cyclopropyl-7H-pyrrolo[2,3-d]pyrimidin-5-yl)isoquinolin-8-yl)-3-(5-(1-(trifluoromethyl)cyclopropyl)-isoxazol-3-yl)urea]
< 200 | < 100 | Nc1ncnc2c1c(-c1ccc(NC(=O)Nc3cc(C4(C(F)(F)F)CC4)on3)c3nonc13)cn2C1CC1 [Example I-77, 1-(7-(4-amino-7-cyclopropyl-7H-pyrrolo[2,3-d]pyrimidin-5-yl)benzo[c][1,2,5]oxadiazol-4-yl)-3-(5-(1-(trifluoromethyl)-cyclopropyl)isoxazol-3-yl)urea]
< 200 | < 100 | CN1CCC(Oc2ccc(NC(=O)Nc3ccc(-c4cn(C5CC5)c5ncnc(N)c45)c4nonc34)cc2C(F)(F)F)CC1 [Example I-79, 1-(7-(4-amino-7-cyclopropyl-7H-pyrrolo[2,3-d]pyrimidin-5-yl)benzo[c][1,2,5]oxadiazol-4-yl)-3-(4-((1-methylpiperidin-4-yl)oxy)-3-(trifluoromethyl)-phenyl)urea]
500 to 2000 | > 1000 | CN1CCN(Cc2ccc(NC(=O)Nc3ccc(-c4cn(C5CC5)c5ncnc(N)c45)c4ncoc34)cc2C(F)(F)F)CC1 [Example I-72, 1-(4-(4-amino-7-cyclopropyl-7H-pyrrolo[2,3-d]pyrimidin-5-yl)benzo[d]oxazol-7-yl)-3-(4-((4-methylpiperazin-1-yl)-methyl)-3-(trifluoromethyl)-phenyl)urea]
500 to 2000 | 250 to 1000 | CC(C)(C)c1cc(NC(=O)Nc2ccc(-c3cn(C4CC4)c4ncnc(N)c34)c3ccoc23)on1 [Example I-63, 1-(4-(4-amino-7-cyclopropyl-7H-pyrrolo[2,3-d]pyrimidin-5-yl)benzofuran-7-yl)-3-(3-(tert-butyl)isoxazol-5-yl)urea]
< 200 | < 100 | Nc1ncnc2c1c(-c1ccc(NC(=O)Nc3cc(C4(C(F)(F)F)CC4)no3)c3nccn13)cn2C1CC1 [Example I-22, 1-(5-(4-amino-7-cyclopropyl-7H-pyrrolo[2,3-d]pyrimidin-5-yl)imidazo[1,2-a]pyridin-8-yl)-3-(3-(1-(trifluoromethyl)-cyclopropyl)isoxazol-5-yl)-urea]
> 2000 | < 100 | CN1CCN(Cc2ccc(NC(=O)Nc3ccc(-c4cn(C5CC5)c5ncnc(N)c45)n4cc(C(F)(F)F)nc34)cc2C(F)(F)F)CC1 [Example I-47, 1-(5-(4-amino-7-cyclopropyl-7H-pyrrolo[2,3-d]pyrimidin-5-yl)-2-(trifluoromethyl)-imidazo[1,2-a]pyridin-8-yl)-3-(4-((4-methylpiperazin-1-yl)-methyl)-3-(trifluoromethyl)-phenyl)urea]
< 200 | < 100 | CN1CCC(Oc2ccc(NC(=O)Nc3ccc(-c4cn(C5CC5)c5ncnc(N)c45)n4ccnc34)cc2C(F)(F)F)CC1 [Example I-37, 1-(5-(4-amino-7-cyclopropyl-7H-pyrrolo[2,3-d]pyrimidin-5-yl)imidazo[1,2-a]pyridin-8-yl)-3-(4-((1-methylpiperidin-4-yl)oxy)-3-(trifluorometh-yl)phenyl)urea]
< 200 | < 100 | CC(C)(C)c1cc(NC(=O)Nc2ccc(-c3cn(C4CC4)c4ncnc(N)c34)n3ccnc23)on1 [Example I-17, 1-(5-(4-amino-7-cyclopropyl-7H-pyrrolo[2,3-d]pyrimidin-5-yl)imidazo[1,2-a]pyridin-8-yl)-3-(3-(tert-butyl)isoxazol-5-yl)urea]
< 200 | < 100 | CN1CCN(Cc2ccc(NC(=O)Nc3ccc(-c4cn(C5CC5)c5ncnc(N)c45)n4ccnc34)cc2C(F)(F)F)CC1 [Example I-34, 1-(5-(4-amino-7-cyclopropyl-7H-pyrrolo[2,3-d]pyrimidin-5-yl)imidazo[1,2-a]pyridin-8-yl)-3-(4-((4-methylpiperazin-1-yl)methyl)-3-(trifluorometh-yl)phenyl)urea]
< 200 | > 1000 | CN1CCN(Cc2ccc(NC(=O)Nc3ccc(-c4cn(C5CC5)c5ncnc(N)c45)c4cnoc34)cc2C(F)(F)F)CC1 [Example I-69, 1-(4-(4-amino-7-cyclopropyl-7H-pyrrolo[2,3-d]pyrimidin-5-yl)benzo[d]isoxazol-7-yl)-3-(4-((4-methylpiperazin-1-yl)methyl)-3-(trifluorometh-yl)phenyl)urea]
